Test results reported in patent US20040210184A1, “Effect of electric field and ultrasound for transdermal drug delivery” (Massachusetts Institute of Technology, priority 1995, published 2004).

Key:
[1] = Stability of the molecules under electroporating conditions and temperature, measured by fluorescence; format: physicochemical; conditions: 1 mM solutions under electroporating conditions
Protocol: In order to assess the stability of these molecules during electroporation, calcein and sulphorhodamine solutions (1 mM each) were exposed to electroporating conditions similar to those used in this study. No difference between the intensity of their fluorescence before and after exposure to electric fields could be detected. In addition, these molecules are stable up to a temperature of 100° C. (measured in terms of fluorescence).

[2] = human, 1 mM, pH 7.4
Protocol: Full thickness of human cadaver skin (obtained from local hospitals) was heat stripped by immersion in 60° C. water for two minutes followed by the removal of the epidermis. The skin was then stored in a humidified chamber (95% relative humidity) at 4° C. The heat-stripped human epidermis was placed in a custom-made side-by-side permeation chamber, skin area of 0.64 cm^2, designed to adapt an ultrasound transducer at the donor side. The donor compartment was filled with a 1 mM solution of calcein (MW 623, electric charge—4; Sigma Chemicals) (CA) and 1 mM sulphorhodamine (MW 607, electric charge—1; Sigma Chemical) (SR) in 150 mM Phosphate Buffer Saline (PBS; Sigma Chemicals).
The ultrasound probe was inserted into the donor compartment. […]
The fluorometer was set up for dual wavelength measurements (excitation wavelength=488 nm, emission wavelength=515 nm (calcein), and excitation wavelength =586 nm, emission wavelength=607 nm (sulphorhodamine)). […] Transdermal calcein and sulphorhodamine flux was calculated from the fluorescence readings by taking into account parameters such as flow rate, receiver compartment volume, and fluorometer caveat volume. The effluent from the receptor compartment was pumped through a spectrofluorometer (Fluorolog-II-system F112AI SPEX-industries, Edison, N.J.) where the fluorescence of calcein and sulphorhodamine was separately measured twice every minute. […]

[3] = format: in vitro ADME
Text: Passive experiments without ultrasound with polyethylene glycol 200 dilaurate (PEG), isopropyl myristate (IM), and glycerol trioleate (GT) result in corticosterone flux enhancement values of only 2, 5, and 0.8, relative to the passive flux from PBS alone. […] These passive flux enhancements were due to (1) the increased corticosterone solubility in the enhancers, and (2) interactions of linoleic acid with the skin. Specifically, linoleic acid increased the corticosterone permeability by nearly 20-fold over that from 50% ethanol alone. […] Ultrasound combined with 50% ethanol produces a 2-fold increase in corticosterone transport above the passive case, but increase by 14-fold the transport from LA/Ethanol.

[4] = ethanol as chemical enhancer; cited from earlier work

O=C(O)CN(CC(=O)O)Cc1cc2c(cc1O)Oc1cc(O)c(CN(CC(=O)O)CC(=O)O)cc1C21OC(=O)c2ccccc21 [calcein]
difference in fluorescence intensity before and after exposure to electric fields [1]: No difference | enhancement: amount transported in the presence of ultrasound-electric field pulsing to that in the presence of electric field pulsing alone [2]: 2

C[C@]12C[C@H](O)[C@H]3[C@@H](CCC4=CC(=O)CC[C@@]43C)[C@@H]1CC[C@@H]2C(=O)CO [corticosterone]
flux [3]: 0.16 mg/cm^2/hr | flux relative to that from PBS alone [3]: 13,000 fold | flux with ultrasound relative to the passive flux from the same enhancers [3]: 1.3-5.0 | permeability increase by linoleic acid over that from 50% ethanol alone [3]: ~20 fold

C[C@]12CC[C@@H]3c4ccc(O)cc4CC[C@H]3[C@@H]1CC[C@@H]2O [estradiol]
flux increase by ethanol [4]: 140 fold

O=S(=O)([O-])c1cc(S(=O)(=O)O)ccc1C1=c2cc3c4c(c2Oc2c1cc1c5c2CCCN5CCC1)CCC[N+]=4CCC3 [sulphorhodamine]
difference in fluorescence intensity before and after exposure to electric fields [1]: No difference
